# Reference: patent US6423541B1, “Process for in vitro selection of high methol producing genotypes” (Council of Scientific&Industrial Reaearch, priority 2000, dated 2002)
# Assays:
# [1] = system: regenerated shoots of Mentha arvensis variety MAS-1; assay: Survival of in vitro raised shoots on menthol containing MS basal medium; assay type: cell-based
# Excerpt: The plant varieties analysed were Himalaya, Shivalik, Gomti, MAS-1, Kosi, Kalka of Mentha arvensis L. (2n=96). The suckers of these plant varieties were obtained from CIMAP's national gene bank for medicinal and aromatic plants for planting. The explant materials were collected from the field grown plants and surface sterilized by washing sequentially with 2% detergent, distilled water containing a few drops of Savlon (Johnson and Johnson, India), 0.1% acidified mercuric chloride and autoclaved distilled water before inoculation. About 1 cm long internodal pieces were inoculated in the MS medium (Murasighe and Skoog, 1962) containing vitamins, 100 mg l^−1 myo-inositol 3% wv^−1 sucrose, 1.5% wv^−1 agar (Difco), 0.5 .μg ml^−1 of an auxin, (NAA, 1-napthalene acetic acid) and 5 μg ml^−1 of a cytokinin (BAP, benzyl aminopurine) (Shasany et al, 1998). The cultures were grown at 25±2° C. and 400 to 600 lux light intensity with 16 h photoperiod. The regenerated shoots were separated 12 weeks after the explant inoculation for rooting and/or testing menthol tolerance.
# The regenerated shoots (3-4 cm long, containing the apical bud and 2-3 nodes) separated after 12 weeks, were inoculated into MS basal medium with or without menthol (0 to 100 μg ml^−1). Concentration of menthol in each treatment was stepped up by 10 μg in a sequential manner. On each kind of these media, 5 independently regenerated shoots were inoculated per flask; 4 flasks were inoculated per replication and each treatment was replicated 5 times, making the number of flasks to 20 and number of explants to 100 for each concentration of menthol. The experiment was conducted in the completely randomized design (CRD) fashion. Cultures were incubated and maintained at 25±2° C. and 400-600 lux light intensity with 16-hour photoperiod. The wilting response and lethality in explants was recorded every 24 hours over a period of one week.
# [2] = system: calliclones (regenerated shoots) of Mentha arvensis cv. Himalaya; assay: Large scale stepwise screening of calliclones on menthol screening medium; assay type: cell-based
# Method: Large scale screening of clones was carried out in various batches by raising the calliclones as above. A total of 2850 shoots were transferred to the screening medium containing 50 μg ml^−1 menthol and incubated for 1 week. The surviving shoots from this medium were stepwise transferred to media containing higher concentrations of menthol ([…]). Finally the tolerant clones surviving at 70 μg ml^−1 menthol concentration were transferred individually to MS basal medium containing vitamins for rooting. The looted plantlets were subsequently hardened and transferred to pots in the glass house to raise sufficient planting material (sucker) for field experiments.
# After 7 days of culture 1263 twigs survived at 50 μg ml^−1 concentration of menthol. These surviving shoots were subsequently transferred to the medium containing 60 μg ml^−1 menthol At this concentration 942 twig turned brown and died within 7 days. Finally, the 321 twigs which survived were inoculated into the screening medium containing 70 μg ml^−1 menthol. In His tertiary level screening, only 30 shoots survived (Table 5). These clones were inoculated into the rooting medium and after rooting transferred to pots in the glasshouse. The acclimatized selected plantlets from the glasshouse were transferred to the field for sucker production in the month of September 1997. In the month of January 1998, the suckers developed from each plant were field planted with 5 replicates using randomized block design. The plants grown with standard agronomic practices were harvested twice, first after 110 days of planting and subsequently 70 days after the first harvest. Ultimately, these 30 menthol tolerant clones were multiplied and grown in the field in replicated plots of 5 m×5 m sizes. The twigs of 30 clones from the replicated trials were rechecked for tolerant phenotypes at a concentration of 70 μg ml^−1 menthol wherein, these survived even after 7 days. These were also tested for survival at one step higher concentration of menthol (80 μg ml^−1). At this concentration of menthol only 5 clones (GRB 3, 14, 24, 27, 30) survived.
# 2. Large scale screening of the heterogeneous population of molecular variants were carried out by inoculating the regenerated independent clones into the screening medium i.e., MS basal agar containing 50 μg ml^−1 menthol followed by incubation for 1 week.
# 3. The surviving shoots from this medium were step-wise transferred to media containing higher concentrations of menthol (60 and 70 μg ml^−1). Finally the tolerant clones surviving at 70 μg ml^−1 menthol concentration (which cause 99% killing) are transferred individually to MS basal medium containing vitamins for rooting.
structure (smiles),measurement,setting,value
CC1CCC(C(C)C)C(O)C1 (stereo not shown) [menthol],survival,"[1]; 80 ppm menthol, after 7 days of incubation",2%
same,lethality,"[1]; 100-ppm menthol, twenty-four hours after incubation",98%
same,Survival after 7 days Number,[1]; menthol 10 μg ml^−1,20.0 ± 0.00
same,Survival after 24 hours Number,"[1]; menthol 10 μg ml^−1, 20 shoots tested per replication",20.0 ± 0.00
same,Survival after 7 days Number,[1]; menthol 20 μg ml^−1,20.0 ± 0.00
same,Survival after 24 hours Number,"[1]; menthol 20 μg ml^−1, 20 shoots tested per replication",20.0 ± 0.00
same,Survival after 7 days Number,[1]; menthol 30 μg ml^−1,20.0 ± 0.00
same,Survival after 24 hours Number,"[1]; menthol 30 μg ml^−1, 20 shoots tested per replication",20.0 ± 0.00
same,Survival after 7 days Number,[1]; menthol 40 μg ml^−1,18.0 ± 0.57
same,Survival after 24 hours Number,"[1]; menthol 40 μg ml^−1, 20 shoots tested per replication",20.0 ± 0.00
same,Survival after 7 days Number,[1]; menthol 50 μg ml^−1,13.4 ± 0.66
same,Survival after 24 hours Number,"[1]; menthol 50 μg ml^−1, 20 shoots tested per replication",19.0 ± 0.57
same,Survival after 7 days Number,[1]; menthol 60 μg ml^−1,10.0 ± 0.91
same,Survival after 24 hours Number,"[1]; menthol 60 μg ml^−1, 20 shoots tested per replication",16.0 ± 0.57
same,Survival after 7 days Number,[1]; menthol 70 μg ml^−1,3.0 ± 0.58
same,Survival after 24 hours Number,"[1]; menthol 70 μg ml^−1, 20 shoots tested per replication",10.0 ± 0.82
same,Survival after 7 days Number,[1]; menthol 80 μg ml^−1,0.4 ± 0.32
same,Survival after 24 hours Number,"[1]; menthol 80 μg ml^−1, 20 shoots tested per replication",5.0 ± 0.41
same,Survival after 7 days Number,[1]; menthol 90 μg ml^−1,0.0 ± 0.00
same,Survival after 24 hours Number,"[1]; menthol 90 μg ml^−1, 20 shoots tested per replication",3.0 ± 0.32
same,Survival after 7 days Number,[1]; menthol 100 μg ml^−1,0.0 ± 0.00
same,Survival after 24 hours Number,"[1]; menthol 100 μg ml^−1, 20 shoots tested per replication",0.4 ± 0.32
same,twigs survived,"[2]; menthol 50 μg ml^−1, after 7 days of culture, of a total of 2850 shoots",1263
same,twigs which survived,"[2]; menthol 60 μg ml^−1, of the 1263 survivors of 50 μg ml^−1",321
same,twigs turned brown and died,"[2]; menthol 60 μg ml^−1, within 7 days, of the 1263 survivors of 50 μg ml^−1",942
same,killing,[2]; menthol 70 μg ml^−1,99%
same,shoots survived,"[2]; menthol 70 μg ml^−1, tertiary level screening of 321 twigs",30
same,clones survived,"[2]; menthol 80 μg ml^−1, twigs of the 30 selected tolerant clones from field trials",5
